Series [1] deals with Hepatocyte growth factor receptor (Homo sapiens) (UniProt P08581). Nature of the series: Percent inhibition against c-Met at 10 uM by HTRF method. More on the design: scale not given: the % may be the effect or the level left. For orientation: Time-resolved FRET reads energy transfer from a long-lived donor to a nearby acceptor.
Series [2] concerns the target Receptor tyrosine-protein kinase erbB-2 (Homo sapiens) (UniProt P04626). As to the kind of experiment: […] against ErbB2 at 10 uM by HTRF method.
Series [3] has as its target Fibroblast growth factor receptor 1 (Homo sapiens) (UniProt P11362). As to the kind of experiment: Percent inhibition against FGFR1 at 10 uM by HTRF method. More on the design: scale not given: the % may be the effect or the level left.
Series [4] addresses RAC-alpha serine/threonine-protein kinase (Homo sapiens) (UniProt P31749). Nature of the series: […] against PKB/Akt at 10 uM by HTRF method.
Series [5] has as its target T1, Ephrin type-B receptor 4 (Homo sapiens) (UniProt P54760).
T1 sequence (whole entry): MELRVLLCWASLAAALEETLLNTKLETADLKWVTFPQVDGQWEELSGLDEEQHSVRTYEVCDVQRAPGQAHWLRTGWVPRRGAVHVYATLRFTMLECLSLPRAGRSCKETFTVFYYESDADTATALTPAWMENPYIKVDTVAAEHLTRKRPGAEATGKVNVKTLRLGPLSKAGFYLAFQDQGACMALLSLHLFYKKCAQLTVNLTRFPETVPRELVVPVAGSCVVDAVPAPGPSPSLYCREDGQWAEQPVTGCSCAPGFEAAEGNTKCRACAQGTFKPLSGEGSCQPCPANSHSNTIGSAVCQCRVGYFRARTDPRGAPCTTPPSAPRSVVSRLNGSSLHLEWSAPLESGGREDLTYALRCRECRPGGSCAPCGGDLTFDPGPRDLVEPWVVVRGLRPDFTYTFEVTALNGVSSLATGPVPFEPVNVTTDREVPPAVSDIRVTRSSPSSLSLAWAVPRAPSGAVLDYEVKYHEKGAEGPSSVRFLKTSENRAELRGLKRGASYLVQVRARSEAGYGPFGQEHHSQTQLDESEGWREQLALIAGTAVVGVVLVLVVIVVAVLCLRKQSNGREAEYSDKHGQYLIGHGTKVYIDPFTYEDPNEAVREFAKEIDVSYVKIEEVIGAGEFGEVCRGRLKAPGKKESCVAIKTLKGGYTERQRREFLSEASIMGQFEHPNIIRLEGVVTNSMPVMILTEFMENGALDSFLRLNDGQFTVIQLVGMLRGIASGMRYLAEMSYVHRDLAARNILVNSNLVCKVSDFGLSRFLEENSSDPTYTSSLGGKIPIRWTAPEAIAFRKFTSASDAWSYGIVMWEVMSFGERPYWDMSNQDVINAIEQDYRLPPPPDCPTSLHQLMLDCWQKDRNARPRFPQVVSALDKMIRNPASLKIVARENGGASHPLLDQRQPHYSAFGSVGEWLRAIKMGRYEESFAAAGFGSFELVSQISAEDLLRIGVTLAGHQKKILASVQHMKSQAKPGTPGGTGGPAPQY
Nature of the series: Percent inhibition against EphB4 at 10 uM by HTRF method. More on the design: scale not given: the % may be the effect or the level left.

A short description of series [6]: Solubility in water. Format: physicochemical.
The target in series [7] is Receptor-type tyrosine-protein kinase FLT3 (Homo sapiens) (UniProt P36888). Nature of the series: Inhibition of Flt3 at 10 uM by HTRF method. More on the design: scale not given: the % may be the effect or the level left.
Series [8] concerns the target Insulin-like growth factor 1 receptor (Homo sapiens) (UniProt P08069). As to the kind of experiment: […] against IGF1R at 10 uM by HTRF method.
The target in series [9] is Bcr/Abl fusion protein (Homo sapiens) (UniProt P00519+P11274). Nature of the series: Inhibition of bcr-Abl at 10 uM by HTRF method. It is filed as protein assay. More on the design: scale not given: the % may be the effect or the level left.
Series [10] addresses Glycogen synthase kinase-3 beta (Homo sapiens) (UniProt P49841). As to the kind of experiment: Inhibition against GSK3-beta at 10 uM by HTRF method. More on the design: scale not given: the % may be the effect or the level left.
Series [11] concerns the target Epidermal growth factor receptor (Homo sapiens) (UniProt P00533). As to the kind of experiment: […] against ErbB1 at 10 uM by HTRF method.
Series [12] has as its target Cyclin-dependent kinase 2 (Homo sapiens) (UniProt P24941). As to the kind of experiment: […] against Cdk2 at 10 uM by HTRF method.
The target in series [13] is T2, Vascular endothelial growth factor receptor 2 (Homo sapiens, UniProt P35968). Nature of the series: Inhibition of VEGFR2 in 293 adenovirus transfected kidney cells by cell-based ELISA assay. (In an ELISA, binding on a coated surface is turned into a signal by an enzyme label.)
For series [14], the target named is T2, Vascular endothelial growth factor receptor 2. As to the kind of experiment: Inhibition of VEGFR2 by enzymatic assay.
Series [15] concerns the target cAMP-dependent protein kinase (PKA) (Homo sapiens) (UniProt P22694+P17612+P22612). As to the kind of experiment: Inhibition against PKA at 10 uM by HTRF method. It is filed as protein assay. More on the design: scale not given: the % may be the effect or the level left.
Series [16] addresses Vascular endothelial growth factor receptor 1 (Homo sapiens, UniProt P17948). As to the kind of experiment: Inhibition of VEGFR1 by enzymatic assay.
Series [17] deals with Cyclin-dependent kinase 5 (Homo sapiens) (UniProt Q00535). Nature of the series: […] against Cdk5 at 10 uM by HTRF method.

The results in this text go back to ChEMBL document CHEMBL1139649, “Hetaryl imidazoles: a novel dual inhibitors of VEGF receptors I and II” (Bioorg Med Chem Lett, 2006).

Broadly, the solubility is the dissolved amount per volume that the medium holds. In general, IC50 refers to the point on the concentration scale where inhibition reaches its midpoint.

Each structure is given as a SMILES string. Bounds are passed on as bounds.

Chain of Epidermal growth factor receptor (Homo sapiens) (P00533 whole entry): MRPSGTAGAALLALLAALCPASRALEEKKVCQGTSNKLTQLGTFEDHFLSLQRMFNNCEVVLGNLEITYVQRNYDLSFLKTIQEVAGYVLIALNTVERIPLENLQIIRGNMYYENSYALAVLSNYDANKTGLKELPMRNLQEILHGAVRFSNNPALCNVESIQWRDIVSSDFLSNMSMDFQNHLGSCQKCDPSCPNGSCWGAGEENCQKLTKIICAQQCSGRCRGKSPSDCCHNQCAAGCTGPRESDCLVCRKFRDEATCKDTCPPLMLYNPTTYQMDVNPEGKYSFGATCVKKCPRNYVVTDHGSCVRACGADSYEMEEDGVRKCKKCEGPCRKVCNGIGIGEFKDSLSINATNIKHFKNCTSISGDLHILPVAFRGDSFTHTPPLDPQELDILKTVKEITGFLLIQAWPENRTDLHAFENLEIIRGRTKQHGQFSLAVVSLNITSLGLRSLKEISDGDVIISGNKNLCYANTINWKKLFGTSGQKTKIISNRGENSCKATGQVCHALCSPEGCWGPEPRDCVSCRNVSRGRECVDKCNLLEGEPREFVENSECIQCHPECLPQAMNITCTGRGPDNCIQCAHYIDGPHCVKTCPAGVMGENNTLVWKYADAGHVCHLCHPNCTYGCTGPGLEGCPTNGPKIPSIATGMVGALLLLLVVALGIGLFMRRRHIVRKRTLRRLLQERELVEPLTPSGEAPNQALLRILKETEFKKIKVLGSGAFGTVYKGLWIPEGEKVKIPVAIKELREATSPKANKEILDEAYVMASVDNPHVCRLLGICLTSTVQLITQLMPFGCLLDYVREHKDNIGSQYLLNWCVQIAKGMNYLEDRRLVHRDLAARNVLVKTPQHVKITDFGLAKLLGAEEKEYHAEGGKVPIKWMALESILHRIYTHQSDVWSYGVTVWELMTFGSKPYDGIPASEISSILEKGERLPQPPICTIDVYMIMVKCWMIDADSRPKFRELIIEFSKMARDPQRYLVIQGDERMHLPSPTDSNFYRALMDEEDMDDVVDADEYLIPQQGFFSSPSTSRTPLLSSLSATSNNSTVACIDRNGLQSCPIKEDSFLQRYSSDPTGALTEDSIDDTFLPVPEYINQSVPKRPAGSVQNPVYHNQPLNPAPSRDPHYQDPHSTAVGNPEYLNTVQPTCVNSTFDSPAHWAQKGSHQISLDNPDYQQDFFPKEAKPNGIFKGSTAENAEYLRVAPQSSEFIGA
Chain of RAC-alpha serine/threonine-protein kinase (Homo sapiens) (P31749 whole entry): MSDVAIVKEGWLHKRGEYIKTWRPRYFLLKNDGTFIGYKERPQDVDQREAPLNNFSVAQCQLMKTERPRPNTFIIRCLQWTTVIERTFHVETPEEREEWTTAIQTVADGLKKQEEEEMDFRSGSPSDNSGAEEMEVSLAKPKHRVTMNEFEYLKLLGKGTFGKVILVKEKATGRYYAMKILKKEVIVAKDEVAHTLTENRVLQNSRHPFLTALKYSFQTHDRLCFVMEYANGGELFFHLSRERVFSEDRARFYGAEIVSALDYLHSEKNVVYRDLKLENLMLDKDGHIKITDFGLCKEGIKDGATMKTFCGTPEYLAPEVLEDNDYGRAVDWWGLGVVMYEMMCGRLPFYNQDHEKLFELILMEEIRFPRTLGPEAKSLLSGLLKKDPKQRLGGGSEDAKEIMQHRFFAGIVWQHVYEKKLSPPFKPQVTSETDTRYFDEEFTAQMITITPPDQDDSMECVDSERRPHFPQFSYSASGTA
Chain of Bcr/Abl fusion protein (Homo sapiens) (P00519 whole entry, looked up, the tested form may be a part): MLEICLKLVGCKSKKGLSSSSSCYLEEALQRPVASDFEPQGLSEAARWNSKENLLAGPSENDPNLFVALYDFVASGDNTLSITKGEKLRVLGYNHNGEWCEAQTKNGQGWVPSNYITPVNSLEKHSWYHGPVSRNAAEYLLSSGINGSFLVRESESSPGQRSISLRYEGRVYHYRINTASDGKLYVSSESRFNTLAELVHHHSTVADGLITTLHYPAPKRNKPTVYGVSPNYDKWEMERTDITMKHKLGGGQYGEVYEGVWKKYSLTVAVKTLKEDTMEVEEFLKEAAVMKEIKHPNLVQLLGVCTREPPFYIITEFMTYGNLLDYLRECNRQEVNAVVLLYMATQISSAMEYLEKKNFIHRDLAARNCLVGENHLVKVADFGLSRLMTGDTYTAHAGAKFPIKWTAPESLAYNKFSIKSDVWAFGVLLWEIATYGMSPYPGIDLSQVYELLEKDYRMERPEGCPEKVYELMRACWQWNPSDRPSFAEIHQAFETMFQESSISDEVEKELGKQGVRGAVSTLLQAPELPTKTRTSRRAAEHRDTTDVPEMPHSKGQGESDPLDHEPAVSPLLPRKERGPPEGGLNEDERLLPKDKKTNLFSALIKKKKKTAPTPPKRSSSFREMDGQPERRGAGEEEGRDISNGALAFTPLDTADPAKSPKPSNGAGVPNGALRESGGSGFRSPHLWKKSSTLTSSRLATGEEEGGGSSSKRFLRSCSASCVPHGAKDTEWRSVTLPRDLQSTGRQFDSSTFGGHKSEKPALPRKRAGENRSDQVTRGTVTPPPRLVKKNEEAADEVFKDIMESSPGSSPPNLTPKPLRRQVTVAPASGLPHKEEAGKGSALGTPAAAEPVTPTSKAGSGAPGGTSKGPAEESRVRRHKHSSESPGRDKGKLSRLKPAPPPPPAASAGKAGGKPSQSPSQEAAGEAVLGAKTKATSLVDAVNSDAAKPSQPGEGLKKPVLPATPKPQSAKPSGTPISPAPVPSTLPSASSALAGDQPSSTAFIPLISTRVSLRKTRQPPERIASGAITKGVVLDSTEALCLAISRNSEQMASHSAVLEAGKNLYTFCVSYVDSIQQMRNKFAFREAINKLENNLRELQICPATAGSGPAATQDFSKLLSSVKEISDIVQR
Chain of Bcr/Abl fusion protein (Homo sapiens) (P11274 whole entry, looked up, the tested form may be a part): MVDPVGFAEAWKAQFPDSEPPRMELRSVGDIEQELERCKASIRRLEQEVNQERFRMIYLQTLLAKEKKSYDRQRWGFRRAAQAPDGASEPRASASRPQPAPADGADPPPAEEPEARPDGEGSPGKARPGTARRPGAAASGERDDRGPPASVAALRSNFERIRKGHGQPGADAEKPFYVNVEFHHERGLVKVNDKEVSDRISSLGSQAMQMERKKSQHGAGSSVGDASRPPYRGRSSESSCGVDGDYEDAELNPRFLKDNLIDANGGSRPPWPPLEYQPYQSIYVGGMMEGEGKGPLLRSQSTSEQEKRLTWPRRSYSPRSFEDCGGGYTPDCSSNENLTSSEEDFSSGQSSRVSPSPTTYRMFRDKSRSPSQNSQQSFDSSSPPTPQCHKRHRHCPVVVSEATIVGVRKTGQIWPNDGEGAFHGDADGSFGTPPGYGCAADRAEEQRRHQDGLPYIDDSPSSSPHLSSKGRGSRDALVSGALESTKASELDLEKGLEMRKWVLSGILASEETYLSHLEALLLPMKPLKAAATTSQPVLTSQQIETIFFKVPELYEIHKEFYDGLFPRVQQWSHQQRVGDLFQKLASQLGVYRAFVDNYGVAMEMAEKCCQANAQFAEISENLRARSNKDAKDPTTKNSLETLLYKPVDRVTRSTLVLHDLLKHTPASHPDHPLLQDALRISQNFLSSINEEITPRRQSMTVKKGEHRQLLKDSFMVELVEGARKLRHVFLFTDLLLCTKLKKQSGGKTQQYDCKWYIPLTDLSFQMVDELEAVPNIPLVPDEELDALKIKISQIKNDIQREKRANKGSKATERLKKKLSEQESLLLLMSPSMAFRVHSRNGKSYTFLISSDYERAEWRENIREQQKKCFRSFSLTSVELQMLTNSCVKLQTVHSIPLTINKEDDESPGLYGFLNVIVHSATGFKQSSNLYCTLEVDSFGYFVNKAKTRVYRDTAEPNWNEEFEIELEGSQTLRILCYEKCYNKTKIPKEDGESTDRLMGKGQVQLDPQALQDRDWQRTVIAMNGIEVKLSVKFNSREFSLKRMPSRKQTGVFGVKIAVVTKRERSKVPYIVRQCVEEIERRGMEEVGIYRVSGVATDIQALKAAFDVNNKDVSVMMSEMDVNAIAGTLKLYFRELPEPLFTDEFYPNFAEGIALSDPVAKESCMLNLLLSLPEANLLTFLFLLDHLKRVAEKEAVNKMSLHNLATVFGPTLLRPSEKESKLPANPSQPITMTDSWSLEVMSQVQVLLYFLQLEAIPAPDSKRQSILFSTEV
Chain of Receptor-type tyrosine-protein kinase FLT3 (Homo sapiens) (P36888 whole entry): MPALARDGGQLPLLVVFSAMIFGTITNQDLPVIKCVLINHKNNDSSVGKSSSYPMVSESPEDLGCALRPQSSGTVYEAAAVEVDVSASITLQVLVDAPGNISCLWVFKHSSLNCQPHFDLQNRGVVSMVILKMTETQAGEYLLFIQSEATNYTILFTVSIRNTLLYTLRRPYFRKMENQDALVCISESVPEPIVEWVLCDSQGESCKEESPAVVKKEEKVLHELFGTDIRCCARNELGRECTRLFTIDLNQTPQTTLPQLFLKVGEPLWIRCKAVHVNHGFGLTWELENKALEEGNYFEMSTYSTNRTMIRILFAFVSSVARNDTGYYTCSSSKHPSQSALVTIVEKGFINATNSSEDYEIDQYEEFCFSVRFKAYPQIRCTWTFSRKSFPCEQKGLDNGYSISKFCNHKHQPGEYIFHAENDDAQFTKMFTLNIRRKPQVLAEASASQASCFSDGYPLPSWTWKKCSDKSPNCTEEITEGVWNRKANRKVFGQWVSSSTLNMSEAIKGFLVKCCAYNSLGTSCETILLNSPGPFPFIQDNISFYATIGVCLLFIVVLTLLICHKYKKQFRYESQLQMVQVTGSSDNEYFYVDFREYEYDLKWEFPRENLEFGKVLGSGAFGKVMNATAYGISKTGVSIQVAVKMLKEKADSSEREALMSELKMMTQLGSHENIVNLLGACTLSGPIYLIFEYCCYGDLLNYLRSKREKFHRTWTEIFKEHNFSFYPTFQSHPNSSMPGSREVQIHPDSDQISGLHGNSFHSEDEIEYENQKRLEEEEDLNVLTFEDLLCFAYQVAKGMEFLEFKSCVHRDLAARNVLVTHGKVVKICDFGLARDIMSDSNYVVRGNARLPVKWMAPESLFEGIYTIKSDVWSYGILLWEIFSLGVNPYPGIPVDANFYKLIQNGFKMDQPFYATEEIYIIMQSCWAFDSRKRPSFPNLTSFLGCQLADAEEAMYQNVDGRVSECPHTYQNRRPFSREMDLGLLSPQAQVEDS

Regarding `Cn1cnc(NCc2ccncc2)c1-c1nnc(Nc2ccc(OC(F)(F)Cl)cc2)o1`, the Activity in series [1], in series [2], in [3], in [4], in series [5] and in series [7] was under 30% in each case. Besides, the Activity in series [8], in series [9], in series [10], in series [15] and in [17] was under 30% in each case. For the same compound, the solubility in [6] is over 5 mM. The Percent inhibition in series [11] and in [12] was under 30% in each case. Besides, the IC50 in series [13] came to 96 nM; in series [14], 130 nM; in series [16] it was 460 nM.

As for `Cn1cnc(NCc2ccncc2)c1-c1nnc(Nc2ccc(C(F)(F)F)cc2)o1`, the Activity in [1], in series [2], in [3], in [4], in [5] and in series [7] was under 30% in each case. Also, the Activity in series [8], in series [9], in series [10], in [15] and in series [17] was under 30% each time. Moreover, the solubility in series [6] was over 5 mM. Besides, the Percent inhibition in [11] and in series [12] was under 30% each time. Also, the concentration for half-maximal inhibition (IC50) in series [13] was found to be 82 nM; in series [14], 73 nM; in series [16], 120 nM.

Take `COc1ccc(Nc2nnc(-c3c(NCc4ccncc4)ncn3C)o2)cc1OC`: the Activity in [1], in series [2], in series [3], in series [4], in series [5] and in series [7] was under 30% each time. For the same compound, the Activity in [8], in series [9], in series [10], in series [15] and in [17] was under 30% each time. This compound gave a solubility in series [6] of over 5 mM. In addition, the Percent inhibition in [11] and in series [12] was under 30% each time. Besides, the results for the IC50 in [13], in series [14] and in series [16] were 93 nM, 52 nM and 590 nM, respectively.

`Cn1cnc(NCc2ccncc2)c1-c1nnc(Nc2ccc(OC(F)(F)F)cc2)o1`: the Activity in [1], in series [2], in [3], in series [4], in series [5] and in series [7] was under 30% in each case. Moreover, the Activity in series [8], in series [9], in series [10], in series [15] and in series [17] was under 30% throughout. In series [6], this compound showed a solubility of over 5 mM. The Percent inhibition in [11] and in [12] was under 30% each time. For the same compound, the results for the half-maximal inhibitory concentration (IC50) in [13], in series [14] and in [16] were 66 nM, 93 nM and 160 nM, respectively.

Consider `COc1cccc(Nc2nnc(-c3c(NCc4ccncc4)ncn3C)o2)c1`, for which the Activity in series [1], in series [2], in [3], in series [4], in [5] and in series [7] was under 30% in each case. Moreover, the Activity in [8], in [9], in series [10], in [15] and in series [17] was under 30% throughout. The solubility in [6] is over 5 mM. Moreover, the Percent inhibition in series [11] and in [12] was under 30% throughout. Besides, the IC50 came to 64 nM in [13], 130 nM in [14] and 670 nM in [16].

For the compound `Cn1cnc(NCc2ccncc2)c1-c1nnc(Nc2cccc(OC(F)(F)F)c2)o1`, the Activity in [1], in series [2], in series [3], in series [4], in series [5] and in series [7] was under 30% in each case. Besides, the Activity in series [8], in [9], in series [10], in [15] and in series [17] was under 30% throughout. Besides, the Percent inhibition in series [11] and in [12] was under 30% throughout. Moreover, the concentration for half-maximal inhibition (IC50) in series [13] was 130 nM; in series [14] it was 46 nM; in series [16], 560 nM.
